Assay results: patent US12636291B2, “Compositions and methods relating to use of agonists of ALPHA5-containing GABAA receptors” (Centre for Addiction and Mental Health, priority 2019, dated 2026)

Tested on: SV129 mice
Assay: Neurogenesis (proliferation, survival, maturation) in the SV129 mouse model
Assay type: in vivo
Conditions: compared to VEH
Excerpt: We next assessed the effects of GL-II-73 on neurogenesis using the SV129 mouse model Kim et al. 2017. Neural Plasticity, doi.org.10.1155/2017/5863258. Specifically, we assessed the effects of treatment on neuronal cell proliferation, survival, and maturation. It is now recognized that neurogenesis occurs not only during development, but also in the adult brain. […] Specifically, adult neurogenesis is known to occur in three regions in the mammalian brain: (i) the subgranular zone (SGZ) of the dentate gyrus in the hippocampus, which is a region that is involved in regulating learning and memory; (ii) the subventricular zone (SVZ), which is situated throughout the lateral walls of the brain's lateral ventricles; and (ii) the amygdala. New neurons born in the SGZ migrate into the granule cell layer of the dentate gyrus and eventually become granule cells. These newborn neurons integrate into the existing circuitry and receive functional input. Adult neurogenesis in the hippocampus is therefore defined as the progression from neural stem cell to mature dentate granule neuron. All stages of adult neurogenesis are regulated by physiological activity, including the proliferation, differentiation, fate determination of adult neural stem cells (NSCs) and progenitors, and the survival, maturation, and integration of newborn neurons.
The stages of neurogenesis can be broken down into (i) proliferation, (ii) survival of the newly formed cells, and (iii) their maturation. Each can be evaluated using specific markers for proliferation, survival, and maturation. […] BrdU can be used to show survival of the newly proliferating cells since it is incorporated into the newly synthesized DNA of replicating cells and is then maintained in the newly formed cells. Thus, quantitative immunohistochemistry against BrdU is used as a proxy of survival. Finally, doublecortin can be used as a proxy of maturation. Previous studies have shown that all steps of neurogenesis were down regulated in the SV129 mice, and further that chronic treatment with fluoxetine, a first line monoaminergic antidepressant, increased the neurogenesis in this mouse model. We therefore used this model system to assess the effects of chronic treatment with GL-II-73 on neurogenesis.
Fluoxetine treatment was used as a positive control in each experiment.

For `CNCCC(Oc1ccc(C(F)(F)F)cc1)c1ccccc1` (stereo not shown) [FLX, fluoxetine], the “proliferation: number of K167-positive cells” value (chronic treatment (4 weeks), FIG. 13A, FLX p<0.001, GL-II-73 p<0.05) was “increased the number of K167-positive cells”, the “survival: BrdU-positive cells” value (chronic treatment (4 weeks), FIG. 13B) was “only FLX increased BrdU-positive cells” and the “maturation: number of DCX+cells” value (chronic treatment, FIG. 14A, ps<0.05) was “increased with FLX compared to VEH”. The “maturation index (DCX+cells possessing tertiary dendrites over the total DCX+cells)” value (chronic treatment, FIG. 14B, ps<0.01) was “an increase with both FLX and GL-II-73”.
